Measured values as given in PMC5731860, “Novel allylated monocarbonyl analogs of curcumin induce mitotic arrest and apoptosis by reactive oxygen species-mediated endoplasmic reticulum stress and inhibition of STAT3” (Oncotarget, 2017).

Assays:
SGC-7901 = assay: MTT assay, growth inhibition / cell viability; assay type: cell-based; details: Homo sapiens; for inhibition at 20 µM: 24 h
Experimental: (§1) First, we investigated whether allylated MAC alter the viability or have cytotoxic effects on cells in culture. We have performed MTT tetrazolium reduction assay following exposure of cancer cells (gastric cancer, BGC823 and SGC-7901; colon cancer, HT-29, HCT-116 and SW-480) and normal gastric epithelial cells (GES-1) to all 20 allylated MAC at a concentration of 20 μM for 24 h. […] In addition, we also found notable solubility and stability profile of these compounds (Supplementary Figure 1).
(§2) Cells were plated at a density of 8 × 10^3 cells/well in 96-well plates and allowed to attach overnight. Stock solutions of allylated MAC and curcumin were prepared in DMSO and diluted in culture media to obtain appropriate concentration. Cells were treated for 24 h and 48 h, following which, 20 μL of 5 mg/ml MTT reagent was added. Purple formazan product was dissolved by the addition of 100 μL DMSO to each well. Absorbance was then monitored at 490 nm using a plate reader (Molecular Device Spectra MAX190, USA). Percentage of cytotoxicity was determined using the following formula: Growth inhibition (%) = (OD of control−OD of test/OD of control×100%).

BGC-823 = assay: MTT assay, growth inhibition / cell viability; assay type: cell-based; details: Homo sapiens; for inhibition at 20 µM: BGC-823, 20 μM, 24 h
Experimental: as §1, §2

GES-1 = assay: MTT assay, growth inhibition in normal gastric epithelial cells; assay type: cell-based, human; details: for inhibition at 20 µM: Homo sapiens, GES1, 24 h, normal gastric epithelial cells; for inhibition of the normal epithelial cells (selective cytotoxicity in cancer cell lines), in words: 20 μM, 24 h
Experimental: as §1, §2

HT-29 = assay: MTT assay, growth inhibition; assay type: cell-based; details: Homo sapiens, HT-29, 24 h
Experimental: as §1, §2

SW-480 = assay: MTT assay, growth inhibition; assay type: cell-based, human; details: Homo sapiens, SW480, 24 h
Experimental: as §1, §2

HCT-116 = assay: MTT assay, growth inhibition; assay type: cell-based, human; details: for % Of growth inhibition HCT-116: 20 μM, 24 h; for inhibition at 20 µM: Homo sapiens, HCT-116, 24 h
Experimental: as §1, §2

[1] = system: SGC-7901 xenograft tumors; assay: In vivo mouse xenograft model, tumor growth; set-up: species or system mice; details: ip once a day for 12 days, CA10 10 and 20 mg/kg, curcumin 50 mg/kg
Excerpt: (§3) All animal experiments complied with the Wenzhou Medical University's Policy on the Care and Use of Laboratory Animals. Protocols for animal studies were approved by the Wenzhou Medical University Animal Policy and Welfare Committee (Approved documents: 2016/201). Athymic BALB/c nu/nu female mice weighing 20–22 g (6 weeks old) were purchased from Vital River Laboratories (Beijing, China). Animals were housed (6 animals/gage) at a constant room temperature with a 12/12-hr light/dark cycle and fed a standard rodent diet and water ad libitum. SGC-7901 cells were injected subcutaneously into the right flank of each mice at 1 × 10^6 cells in 0.1 mL PBS. Once tumors reached a volume of 100–200 mm^3, mice were randomly divided into 4 groups. These groups included mice treated with 10 mg/kg CA10, mice treated with 20 mg/kg CA10, mice treated 50 mg/kg curcumin, and control mice receiving vehicle alone. All treatments were carried out with intraperitoneal injections. The body weight and tumor volumes were monitored and determined by measuring length (l) and width (w) and calculated as tumor volume (V = 0.5 × l × w2) at the indicated time points. At the end of treatment period, mice were sacrificed and the tumors were removed and weighed for histological analyses and proteins measurement studies.

[2] = Body weight of xenograft mice; assay type: in vivo; details: 0–12 days, ip once a day; CA10 10 and 20 mg/kg, curcumin 50 mg/kg
Excerpt: as §3

IC50 (SGC-7901; SGC-7901, 24 h) [µM]	IC50 (SGC-7901; SGC-7901, 48 h) [µM]	IC50 (BGC-823; BGC-823, 24 h) [µM]	IC50 (BGC-823; BGC-823, 48 h) [µM]	SMILES	inhibition at 20 µM (SGC-7901; SGC-7901, 24 h) [%]	inhibition at 20 µM (BGC-823) [%]	inhibition at 20 µM (GES-1) [%]	inhibition at 20 µM (HT-29) [%]	inhibition at 20 µM (SW-480) [%]	% Of growth inhibition HCT-116 (HCT-116) [%]	inhibition at 20 µM (HCT-116) [%]	inhibition of the normal epithelial cells (selective cytotoxicity in cancer cell lines), in words (GES-1)	tumor weight and volume [1]	body weight of mice [2]
–	–	–	–	C=CCc1cc(/C=C2\CN(C3CC3)C/C(=C\c3ccc(N4CCN(C)CC4)cc3)C2=O)ccc1O [CA11]	61 ± 4.97	61.33 ± 0.48	45.56 ± 0.39	63.3 ± 1.31	49.5 ± 6.47	52.05 ± 1.91	55	–	–	–
–	–	–	–	C=CCc1cc(/C=C2\CN(Cc3ccccc3)C/C(=C\c3ccc(O)c(CC=C)c3)C2=O)ccc1O [CA6]	> 80	65.83 ± 0.52	22.6 ± 6.08	79.7 ± 3.11	79.1 ± 4.2	72.58 ± 2.72	70	minimal inhibition	–	–
–	–	–	–	C=CCc1cc(/C=C2\CN(C3CC3)C/C(=C\c3ccc(OC)c(OC)c3)C2=O)ccc1O [CA17]	73.7 ± 1.26	37 ± 4.35	61.9 ± 1.41	< 60	64.7 ± 4.65	–	78.1 ± 64	–	–	–
–	–	–	–	C=CCc1cc(/C=C2\CN(C3CC3)C/C(=C\c3ccc(N(CC)CC)cc3)C2=O)ccc1O [CA14]	> 80	40.4 ± 5.7	47.9 ± 8.09	< 60	57 ± 3.57	52.10 ± 9.05	55	–	–	–
–	–	–	–	C=CCc1cc(/C=C2\CN(C3CC3)C/C(=C\c3ccc(O)c(CC=C)c3)C2=O)ccc1O [CA4]	77.8 ± 1.98	67.06 ± 0.4	63.4 ± 2.67	74.3 ± 0.79	81 ± 5.36	44.18 ± 6.18	55	–	–	–
62.2 ± 2.08	36.9 ± 3.17	54.4 ± 3.92	38.2 ± 1.02	COc1cc(/C=C/C(=O)CC(=O)/C=C/c2ccc(O)c(OC)c2)ccc1O [curcumin]	–	–	–	–	–	–	–	–	significant reduction	no change
–	–	–	–	C=CCc1cc(/C=C2\CN(C3CC3)C/C(=C\c3ccc(OC)cc3OC)C2=O)ccc1O [CA19]	76.6 ± 5.18	59.2 ± 3.67	62 ± 4.58	62.6 ± 7.39	60.4 ± 3.1	–	78.1 ± 4.72	–	–	–
–	–	–	–	C=CCc1cc(/C=C2\CN(CC)C/C(=C\c3ccc(O)c(CC=C)c3)C2=O)ccc1O [CA1]	66.1 ± 8.88	60.4 ± 0.62	22.8 ± 3.04	< 60	71.3 ± 3.35	50.22 ± 7.62	55	minimal inhibition	–	–
–	–	–	–	C=CCc1cc(/C=C2\CN(C3CC3)C/C(=C\c3ccc(OC(C)(C)C)cc3)C2=O)ccc1O [CA20]	> 80	56.8 ± 0.81	25.8 ± 1.86	71.16 ± 0.6	61.5 ± 6.1	73.62 ± 4.23	70	minimal inhibition	–	–
